The subject of the assay is CD4+ Th1 cells. Description: ER peptide library screening: IFN-γ ELISA of supernatants from iDC-CD4+ Th1 co-culture after priming with peptide-pulsed DC1. It counts as cell-based, human. Particulars: for native ER peptide screening result (immunogenic epitope / candidate sequence): cumulative responses from donors tested, native ER library of 117 peptides (FIG. 7); for donors with significant increase in IFN-γ production / immunogenicity (IFN-γ production): four healthy normal donor samples; for immunogenicity (IFN-γ production): mutated peptides and native ER peptides side by side (FIG. 9-13, 20); for increase in IFN-γ production: native ER individual peptide screening, second sample (FIG. 6C, 6D). The text has this: 176. We then take this peptide library and proceed with the screening process. Briefly, human autologous monocyte fractions from healthy donors and breast cancer patients are pulsed with class II peptides and are rapidly matured to a type-1 polarized dendritic cell (DC1) through the sequential addition of rhGM-CSF, rhIL-4, rhIFN-γ and LPS. Mature-peptide pulsed DC1's are then put in co-culture with autologous naïve T-cells, where these T-cells are presented with peptides via MHC-II molecules and are polarized to a type-1 effector CD4+ cell through DC1 secretion of IL-12. Additionally, IL-2 is added to the coculture to induce the rapid expansion of CD4+ Th1 cells, after 8-10 days of coculture, the now primed CD4+ Th1 cells are re-stimulated with immature dendritic cells presenting the matching class II peptide or an irrelevant class II negative control. Supernatants from the iDC-CD4+ Th1 co-culture are then screened through IFN-γ ELISA to measure Th1-response. An antigen specific response is considered to be significant as approximately a 2-fold increase in IFN-γ production (pg/mL) compared to the control. The final in vitro screening step is then to do a reverse sensitization. Where the primed CD4 T cells are re-stimulated with immature dendritic cells pulsed with the full tumor antigen in question, or the full protein. This step is important to determine if the identified immunogenic epitope can be recognized by T-cells primed to only a small amino acid sequence apart of the much larger protein.
178. The screening process (FIG. 3) of 10-5-1 is repeated on different samples as well to confirm commonalities in increased responses and reproducibility, ensuring that a response was not donor specific to keep track of common increased responses across donors and ultimately identify those reproducibly immunogenic peptides. The screening procedure follows the same experimental steps as mentioned before, and flows through a successive screening strategy, examining pools of 10 peptides, followed by pools of 5-peptides and eventually as individual peptides. This process allows for the rapid identification of the areas in the full protein sequence that may contain immunogenic peptides, rather than screening all peptides individually.
185. From the 11 noted point mutations, we cross matched their locations within the class II sequences of the ER peptide library. From this, each point mutation was represented in three peptide sequences due to the 10-amino acid overlap between adjacent sequences within the library. This overlap helps to account for binding affinity within the MHC II open binding groove (Table 3) 186. From the 11 mutations, a peptide library of 33 peptides (three sequences per mutation) was created (Table 3). As a comparison, we also screened the corresponding native or un-mutated ER sequences side-by-side to see if the mutation induced an increase in Th1 response compared to the native sequence.
In general terms: In an ELISA, binding on a coated surface is turned into a signal by an enzyme label.

The results in this text go back to patent US20240091359A1, “NOVEL ESR1 DERIVED PEPTIDES AND USES THEREOF FOR NEOANTIGEN THERAPY” (H. LEE MOFFITT CANCER CENTER AND RESEARCH INSTITUTE, INC., priority 2021, published 2024).

As for “AKAGLTLQQQHQRLA [P99, native ER library peptide]”, the “native ER peptide screening result (immunogenic epitope / candidate sequence)” value is on record as “immunogenic”. Moreover, the “native ER peptide screening result (immunogenic epitope / candidate sequence)” value (listed as 99) is “candidate sequences”.

On to “FLSSTLKSLEEKDHI [P93, native ER library peptide]”, for which the “donors with significant increase in IFN-γ production” value is “two of four donors”.

As to “GFVDLTLHDQVHLLE [P74, native ER library peptide]”, the “immunogenicity (IFN-γ production)” value was “not immunogenic”.

Regarding “HMSNKGMEHLYSMKC [P104, native ER library peptide]”, the “native ER peptide screening result (immunogenic epitope / candidate sequence)” value was “immunogenic”. The “native ER peptide screening result (immunogenic epitope / candidate sequence)” value (listed as 104) was “candidate sequences”.

Take “IILLNSGVYTFLSST [P91, native ER library peptide]”: the “donors with significant increase in IFN-γ production” value is on record as “two of four donors”.

Turning to “KNVVPLYDLLLEMLD [P107, native ER library peptide]”, the “immunogenicity (IFN-γ production)” value is given as “not immunogenic”.

“LSHIRHMSNKGMEHL [P103, native ER library peptide]”: the “native ER peptide screening result (immunogenic epitope / candidate sequence)” value was “immunogenic” and the “increase in IFN-γ production” value was “almost identical response to 104”. The “native ER peptide screening result (immunogenic epitope / candidate sequence)” value (listed as 103) was “candidate sequences”.

For “LYDLLLEMLDAHRLH [P108, native ER library peptide]”, the “immunogenicity (IFN-γ production)” value is given as “not immunogenic”.

Consider “QQVPYYLENEPSGYT [P26, native ER library peptide]”, for which the “native ER peptide screening result (immunogenic epitope / candidate sequence)” value is “immunogenic”. For the same sequence, for the setting “listed as 26”, the “native ER peptide screening result (immunogenic epitope / candidate sequence)” value is given as “candidate sequences”.

“TLHDQVHLLECAWLE [P75, native ER library peptide]”: the “immunogenicity (IFN-γ production)” value is “not immunogenic”.

On to “YLENEPSGYTVREAG [P27, native ER library peptide]”, for which the “native ER peptide screening result (immunogenic epitope / candidate sequence)” value is recorded as “immunogenic” and the “increase in IFN-γ production” value is reported as “approximately 1.4 fold”. In addition, the “native ER peptide screening result (immunogenic epitope / candidate sequence)” value (listed as 27) is reported as “candidate sequences”.

Regarding “YSMKCKNVVPLYDLL [P106, native ER library peptide]”, the “immunogenicity (IFN-γ production)” value is “not immunogenic”.
